Assay results: patent publication US10054581B1, “Inhibitors of notch signaling pathway and use thereof in treatment of cancers” (Ecole Polytechnique Federale de Lausanne (EPFL), priority 2011, dated 2018)

How the values were obtained:
KOPTK1 = experiment: Annexin V apoptosis, KOPTK1; assay type: cell-based, human; details: 10 μM, 7 days
Protocol: (§1) FIGS. 6A-6D show 6-(4-Tert-Butylphenoxy)Pyridin-3-Amine (I3) induces G0/G1 cell cycle arrest and apoptosis in human T cell acute lymphoblastic leukemia cell lines and human breast cancer cell line HCC1187. […] Percentage of Annexin V positive (apoptotic) cell population was measured using flow cytometry.
(§2) To quantitate the percentage of apoptotic cells, AnnexinV and 7AAD staining was performed. Thymic cells were suspended in 300 μl of 1× AnnexinV binding buffer (BD Biosciences, San Diego, USA) and incubated with 10 μl of AnnexinV-Cy5 antibody and 10 μl of 7AAD (BD Biosciences, San Diego, USA). Samples were incubated for 15 minutes at room temperature. FACS was performed with in one hour of antibody staining.
(§3) This 6-(4-Tert-Butylphenoxy)Pyridin-3-Amine (I3) mediated proliferative arrest could be due to induction of apoptosis or cell cycle arrest during different phases of cell cycle. […] Therefore to further elucidate the mechanisms responsible for 6-(4-Tert-Butylphenoxy)Pyridin-3-Amine (I3) mediated proliferative arrest cell cycle and apoptosis analyses were carried out. […] To investigate cell death, Annexin V staining was performed and proportion of apoptotic (AnnexinV positive) cell population was determined by flow cytometry analyses after 7 days of treatment.

TALL1 = experiment: Cell cycle analysis (Ki67 and Hoechst stain), TALL1; assay type: cell-based, human; details: 10 μM
Protocol: as §1
In addition to induction of apoptosis, the proliferative arrest observed in 6-(4-Tert-Butylphenoxy)Pyridin-3-Amine (I3) treated human leukemic cell lines and breast cancer cell line also appears to be due to cell cycle arrest in G0/G1 phase of the cell cycle. Leukemic cell lines (RPMI8402, KOPTK1 and TALL1) and breast cancer cell lines were treated with 6-(4-Tert-Butylphenoxy)Pyridin-3-Amine (I3) for 48 hours and cell cycle status was determined using Ki67 and Hoechst stain.

RPMI 8402 leukemic cells = experiment: RPMI 8402 xenotransplantation in NOD/SCID γc−/− mice; assay type: in vivo, human
Protocol: FIGS. 8A-8B show 6-(4-Tert-Butylphenoxy)Pyridin-3-Amine (I3) treatment increases latency of leukemia development in mice. […] On day 15, leukemic cells were established in the bone marrow. Mice were treated with oil or 6-(4-Tert-Butylphenoxy)Pyridin-3-Amine (I3) for every day. Mice were imaged on day 27 using Caliper IVIS (Xenogen) live imaging system. Red and blue colour indicates the intensity of luciferase signal and correlates with the number of leukemic cells. […] NOD/SCID γc^−/− mice were transplanted with 5×10^5 RPMI 8402 (luciferase expressing) cells. Leukemia development was followed using Caliper IVIS (Xenogen) live imaging system. […]
The human leukemic cell lines RPMI 8402 and HPB ALL were transduced with a lentivirus containing luciferase gene constitutively expressed downstream of a CMV promoter. […] Mice were monitored for tumor development using Caliper IVIS (Xenogen) live imaging system. […]
Similarly in a preliminary experiment, NOD/SCID γc^−/− mice were transplanted with 5×10^5 RPMI 8402 cells and treated with oil or 6-(4-Tert-Butylphenoxy)Pyridin-3-Amine (I3) following the establishment of the disease. […] Since these animals were treated with the chemical compound 6-(4-Tert-Butylphenoxy)Pyridin-3-Amine (I3) for 27 days, the intestinal tissue was analyzed to detect any toxicity in the gut.

[1] = test system: primary human TALL samples; experiment: Primary human TALL samples treated with I3; assay type: cell-based
Excerpt: To further investigate the Notch inhibitory effect of 6-(4-Tert-Butylphenoxy)Pyridin-3-Amine (I3) in a relevant pathological condition, primary human TALL samples were profiled for the activation of Notch signalling. An accumulation of active form of Notch (NICD) was used as a biomarker for pathway activation.

CUTL1 = experiment: Annexin V apoptosis, CUTL1; assay type: cell-based, human; details: 10 μM, 7 days
Protocol: as §1, §2, §3

[2] = test system: Hedgehog signalling (Gli1); experiment: Hedgehog signalling Gli1 luciferase assay in HeLa cells; assay type: cell-based; details: HeLa cells with Gli1 and Gli1 binding site luciferase
Excerpt: Using a similar strategy, Hedgehog signalling was activated in HeLa cells by introducing the Gli1 transcription factor and pathway activation was monitored using a promoter sequence containing Gli1 binding sites driving the luciferase expression. […] However it still needs to be determined whether the resistance of Wnt and Hedgehog signalling towards 6-(4-Tert-Butylphenoxy)Pyridin-3-Amine (I3) is cell type specific or whether it is a general phenomenon.

[3] = primary human TALL with accumulation of NICD

Compound: CC(C)(C)c1ccc(Oc2ccc(N)cn2)cc1 [I3, 6-(4-Tert-Butylphenoxy)Pyridin-3-Amine]
- apoptosis (Annexin V positive cells) (KOPTK1): induces significant apoptosis
- cell cycle status (TALL1; 48 hours): induces an arrest in the G0/G1 phase of the cell cycle
- increase in cells arrested in G0/G1 phase of the cell cycle (TALL1; stated jointly for RPMI8402, KOPTK1 and TALL1): 20-30%
- leukemia development (luciferase live imaging) (RPMI 8402 leukemic cells; 5×10^5 cells, daily treatment for 27 days after establishment of disease, preliminary experiment): blocks RPMI 8402 leukemic cell growth in xenotransplantation assay
- metastatic lesions in the liver (histology) (RPMI 8402 leukemic cells; daily treatment for 27 days): did not develop any metastatic lesions in the liver
- response to treatment ([1]; primary human TALL samples without detectable levels of NICD): did not respond
- NICD protein [1, 3]: leads to a downregulation of this protein
- proliferation [1, 3]: correlates with a proliferative arrest
- apoptosis (Annexin V positive cells) (CUTL1): induces significant apoptosis
- Hedgehog signalling [2]: did not inhibit the Hedgehog signalling cascade
